Source: patent publication US8551452B2, “Uridine dietary supplementation compliance methods and use thereof” (Massachusetts Institute of Technology, priority 2007, dated 2013)

Columns and labels:
[1] = Localized 13C MRS measurement of in vivo 13C cytidine in brain (9.4 T); details: in vivo 13C brain cytidine content, external reference method
Description: All in vivo MRS studies are performed in a horizontal 9.4-T/31-cm magnet (Magnex Scientific, UK) with an 11-cm-diameter gradient coil capable of switching to 300 mT/m in 500 μs, interfaced with an INOVA console (Varian Inc., Calif., USA). A quadrature ^1H radiofrequency (RF) 14-mm-diameter coil and a linear polarized, three-turn 11-mm-diameter ^13C RF coil are used as the transceiver. A sphere containing 99% ^13C-enriched glucose (Glu) is located at the center of the ^13C coil as an external reference, and the coil is placed on the subject's head. Fast Automatic Shimming Technique by Mapping Along Projections (FASTMAP) shimming with echo-planar imaging (EPI) readout is applied to adjust B0 field homogeneity in a initially nominal ˜440 μL volume of interest (VOI). The Single-shot Inversion Recovery based Non-Echo (SIRENE) sequence is applied for 3D localization with optimized outer volume suppression to ensure elimination of signals from noncerebral tissue, and bilevel WALTZ-16 RF pulses are applied at the water frequency for generation of a nuclear Overhauser effect (NOE) and for decoupling during acquisition.
Twelve 64-scan localized ^13C MR spectra (repetition time (TR)=1 s) acquired and are summed, apodized by 20-Hz exponential line-broadening, zero-filled, and Fourier transformed. […] In vivo ^13C brain cytidine content ([^13C-Cyt]invivo) is calculated.

[2] = 1H-MRS of the hippocampus (3T, PRESS), metabolite ratios to administered uridine; assay type: in vivo; details: brain cytidine-containing metabolites (CDP choline, cytidine, CMP, CDP, CTP, dCMP, dCDP, dCTP) as ratio of administered uridine, left and right hippocampus
Description: MRI and ^1H-MRS are performed on a 3T scanner. Anatomical MR images are obtained in the coronal plane using a 3D magnetization-prepared rapid gradient echo (MPRAGE) sequence. The sequence is acquired with a field of view of 16 cm, 32 slices with a 3-mm slice thickness, 256×256 matrix size 600-msec inversion time, repetition time (TR) of 8 msec, echo time (TE) of 3 msec, a bandwidth of 32 kHz, and 1 excitation. These images are used to select graphically the left and right hippocampus for solvent suppressed ^1H-MRS. Single-voxel ^1H-MRS of the hippocampus is performed using point-resolved spectroscopy (PRESS). […]
Analysis is performed on the main metabolites detected by MRS, that is, CDP choline, cytidine, cytidine 5′-monophosphate (CMP), cytidine 5′-diphosphate (CDP), cytidine 5′-triphosphate (CTP), deoxycytidine 5′-monophosphate (dCMP) , deoxycytidine 5′-diphosphate (dCDP), deoxycytidine 5′-triphosphate (dCTP), all expressed as a ratio of the administered uridine (Ur). When modeling the overall correlation between the administered uridine or uridine source and metabolite ratios, the measurements of metabolite ratios from the hippocampus on both sides of the brain of each subject analyzed by using repeated measures, with a compound symmetry covariance structure, to account for the within subject correlation.

[3] = Localized in vivo 1H MRS of parietal white matter and occipital gray matter (1.5T) for cytidine levels; details: brain cytidine-containing metabolites, brain water as internal reference
Description: All MRI scans and localized in vivo ^1H MRS procedures are performed on a system equipped with shielded gradients (GE 1.5T Signa; General Electric Medical Systems; Milwaukee, Wis.) from 9 PM to midnight. Spectroscopy is performed following a routine brain MRI analysis, and the T2-weighted images are used for localization of an area of interest. […]
The major metabolites detectable in ^1H MRS are CDP choline, cytidine, cytidine 5′-monophosphate (CMP), cytidine 5′-diphosphate (CDP), cytidine 5′-triphosphate (CTP), deoxycytidine 5′-monophosphate (dCMP), deoxycytidine 5′-diphosphate (dCDP), deoxycytidine 5′-triphosphate (dCTP). […] The areas under the peaks is measured by Lorenzian line-shape fitting. The absolute concentrations of CDP choline, cytidine, cytidine 5′-monophosphate (CMP), cytidine 5′-diphosphate (CDP), cytidine 5′-triphosphate (CTP), deoxycytidine 5′-monophosphate (dCMP), deoxycytidine 5′-diphosphate (dCDP), deoxycytidine 5′-triphosphate (dCTP) is calculated from the processed spectrum using the brain water as an internal reference. All concentrations are expressed as millimoles per weight of uridine taken. The reference brain water signals used is fixed in the PWM and in the OGM, as calculated.

Measured: increase in metabolite ratio as a function of administered uridine or uridine source

O=c1ccn([C@@H]2O[C@H](CO)[C@@H](O)[C@H]2O)c(=O)[nH]1 [uridine]
direct correlation: all assays above
